Laboratory results reported in US11534434B2 (Karuna Therapeutics, Inc., priority 2019, dated 2022).

Key:
[1] = Storage stability of the tartrate salt (reanalysis by LC-MS, 1H NMR, 19F NMR); format: physicochemical
Experimental: The tartrate salt of the title compound was unstable at test storage conditions. Although the initial NMR spectra were clean, the LCMS purity was about 75%. After storage at 0° C. for six months, the sample was reanalyzed by ^1H-NMR, ^19F-NMR, and LC-MS.

human M3 mAChR = molecular target: T1, human M3 mAChR (Homo sapiens, UniProt P20309); assay: Whole-cell functional agonist activity, FLIPR Ca2+ release, U2OS-based human M3 mAChR stable cell line; conditions: for EC50: agonist, FLIPR Ca2+ release, U2OS human M3 cells; for Emax: top of curve, % activity vs MAX control ligand, FLIPR Ca2+
T1 construct: expressed in transfected cells
Text: (§1) Whole-cell functional agonist activity in cells expressing recombinant human muscarinic receptor subtypes.
(§2) ThermoFisher's FLIPR™ (Fluorescence Imaging Plate Reader) was used to quantify Ca^2+ release, a functional effect associated with Gaq-coupled M1 and M5 mAChRs. CisBio's phospho-ERK (pERK) Thr202/Tyr204 was used to evaluate Gai/o-coupled M2 and M4 mAChRs responses.
One day before the assay, M1, M3, and M5 cells were thawed out and plated at 10,000 cells/well into black-walled, clear-bottom, Poly-D-lysine coated 384-well microplates and incubated at 37° C. and 5% CO2 in MEME+10% FBS+1× penicillin/streptomycin/glutamine, for the M1 and M3 cell lines and F-12+10% FBS+1× penicillin/streptomycin/glutamine for the M5 cell line. On the day of the test, the media was aspirated and replaced with […] fluo-4 dye loading buffer (1× dye, 1× additive A and 2.5 mM fresh probenecid in HBSS and 20 mM HEPES) and incubated at 37° C. and 5% CO2 for 45 minutes. After the incubation, cells were removed from the incubator, […] of HBSS and 20 mM HEPES was added for a total volume of […], and the cells were allowed to equilibrate at room temperature for 15 minutes in the dark before compounds were applied, by adding 4× compound solution in […] of HBSS, 0.4% DMSO and 20 mM HEPES buffer (made from a 10 mM compound stock solution in 100% DMSO), and responses were recorded for 2 minutes in FLIPR Tetra after compound administration. The M1 and M5 responses were analyzed using the CBIS data analysis suite (ChemInnovation, CA).
(§3) Percentage activity was calculated using the following formula: % Activity=100%×(mean RFU of test sample mean RFU of vehicle control)/(mean MAX RFU control ligand mean RFU of vehicle control) where RFU is relative fluorescence unit. The M2 and the M4 cells were thawed out one day before the assay and plated at 2,000 and 1,000 cells per well, respectively, in […] of DMEM/F12+10% FBS in ProxiPlate 384-well white-walled, white-bottom tissue culture-treated plates and incubated at 37° C. and 5% CO2 overnight. Before the assay, cells were serum-starved at 37° C. in 5% CO2 for 4 hours by replacing culture media with […] of F12 media with 8 mM HEPES. The pERK assay was run according to assay kit instructions with minor volume modifications outlined below.

human M5 mAChR = molecular target: T2, human M5 mAChR (Homo sapiens, UniProt P08912); assay: Whole-cell functional agonist activity, FLIPR Ca2+ release, CHOK1-based human M5 mAChR stable cell line; conditions: for Emax: top of curve, % activity vs MAX control ligand, FLIPR Ca2+
T2 construct: expressed in transfected cells
T2 sequence (P08912 1-532): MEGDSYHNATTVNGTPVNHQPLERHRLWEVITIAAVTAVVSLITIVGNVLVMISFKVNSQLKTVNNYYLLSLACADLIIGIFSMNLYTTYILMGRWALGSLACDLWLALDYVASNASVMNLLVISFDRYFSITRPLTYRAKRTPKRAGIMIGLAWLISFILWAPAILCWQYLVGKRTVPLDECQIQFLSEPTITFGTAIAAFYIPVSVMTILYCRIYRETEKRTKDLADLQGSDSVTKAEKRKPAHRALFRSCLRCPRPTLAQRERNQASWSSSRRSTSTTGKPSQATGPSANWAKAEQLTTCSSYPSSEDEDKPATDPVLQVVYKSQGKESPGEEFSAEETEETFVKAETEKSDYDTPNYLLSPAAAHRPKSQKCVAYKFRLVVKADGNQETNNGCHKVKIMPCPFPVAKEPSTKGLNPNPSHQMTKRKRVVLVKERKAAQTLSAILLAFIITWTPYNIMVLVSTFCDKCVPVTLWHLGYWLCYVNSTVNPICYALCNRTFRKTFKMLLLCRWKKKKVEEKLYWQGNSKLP
Text: as §1, §2
(§4) One day before the assay, M1, M3, and M5 cells were thawed out and plated at 10,000 cells/well into black-walled, clear-bottom, Poly-D-lysine coated 384-well microplates and incubated at 37° C. and 5% CO2 in MEME+10% FBS+1× penicillin/streptomycin/glutamine, for the M1 and M3 cell lines and F-12+10% FBS+1× penicillin/streptomycin/glutamine for the M5 cell line. […] The M1 and M5 responses were analyzed using the CBIS data analysis suite (ChemInnovation, CA).
as §3

[2] = Human liver microsome stability; format: in vitro ADME; conditions: human liver microsomes
Experimental: Human Liver Microsome Stability
Test compounds were dissolved in DMSO to prepare 10 mM stock solutions, diluted to a final test concentration of 100 nM, and incubated at 37° C. with human liver microsomes. Metabolic stability, expressed as a percent of the parent compound remaining, was assessed at 0, 15, 30, 45, and 60 minutes and calculated by comparing the compound's peak area at the time point relative to that at time-0. The half-life (T1/2) was estimated from the slope of the initial linear range of the logarithmic curve of compound remaining (%) vs. time, assuming first-order kinetics. The apparent intrinsic clearance (CLint, in μL/min/pmol, μL/min/mg or μL/min/Mcell) was calculated according to the following formula: CLint=0.693 T1/2*(mg protein/μL or million cells/μL or pmol CYP isoyme/μL).

human M1 mAChR = molecular target: T3, human M1 mAChR (Homo sapiens, UniProt P11229); assay: Whole-cell functional agonist activity, FLIPR Ca2+ release, U2OS-based human M1 mAChR stable cell line
T3 construct: expressed in transfected cells
T3 sequence (P11229 1-460): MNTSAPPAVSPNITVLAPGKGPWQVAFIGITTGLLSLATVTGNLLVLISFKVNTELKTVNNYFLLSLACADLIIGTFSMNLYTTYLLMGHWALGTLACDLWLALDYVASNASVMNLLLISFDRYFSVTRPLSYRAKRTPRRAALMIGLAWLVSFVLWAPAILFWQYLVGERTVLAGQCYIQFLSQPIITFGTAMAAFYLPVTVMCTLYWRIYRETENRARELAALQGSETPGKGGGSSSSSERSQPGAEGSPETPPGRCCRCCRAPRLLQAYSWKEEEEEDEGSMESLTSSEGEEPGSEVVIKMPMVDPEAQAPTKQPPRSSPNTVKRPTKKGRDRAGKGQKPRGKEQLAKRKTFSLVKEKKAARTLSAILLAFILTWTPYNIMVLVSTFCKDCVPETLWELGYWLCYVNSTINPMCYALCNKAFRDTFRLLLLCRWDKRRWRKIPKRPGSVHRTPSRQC
Text: as §1, §2, §4, §3

human M2 mAChR = molecular target: T4, human M2 mAChR (Homo sapiens, UniProt P08172); assay: Whole-cell functional agonist activity, phospho-ERK (pERK), CHOK1-based human M2 mAChR stable cell line; conditions: top of curve, % of min (DMSO) and max (10 mM Acetylcholine) responses
T4 construct: expressed in transfected cells
T4 sequence (P08172 1-466): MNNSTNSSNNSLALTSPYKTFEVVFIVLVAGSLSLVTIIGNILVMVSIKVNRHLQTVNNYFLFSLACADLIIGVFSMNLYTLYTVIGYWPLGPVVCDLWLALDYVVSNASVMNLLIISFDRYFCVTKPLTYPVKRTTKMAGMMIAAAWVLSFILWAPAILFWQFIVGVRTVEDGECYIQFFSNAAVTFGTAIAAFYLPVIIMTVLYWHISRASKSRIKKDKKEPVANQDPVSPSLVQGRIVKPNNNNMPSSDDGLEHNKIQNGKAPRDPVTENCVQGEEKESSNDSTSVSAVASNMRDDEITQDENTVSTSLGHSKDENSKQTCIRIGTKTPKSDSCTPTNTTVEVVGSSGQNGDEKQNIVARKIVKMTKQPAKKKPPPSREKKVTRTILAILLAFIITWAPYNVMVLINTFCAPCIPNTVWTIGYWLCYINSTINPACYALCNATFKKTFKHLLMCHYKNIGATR
Experimental: as §1, §2, §3
(§5) Compound addition was carried out by adding 3× compound solution in […] of media with 0.3% DMSO (made from a 10 mM compound stock solution in 100% DMSO) for 5 minutes before the reaction was terminated by adding […] lysis and blocking solution. Cells were left in the lysis solution for 30 minutes before […] of antibody (Eu and d2) solution was added for an additional 2-hour incubation while protected from light. The plates were then read on laser Pherastar using the TR-FRET protocol.

[3] = Pharmacokinetics following single oral dose administration in male Sprague-Dawley rats; format: in vivo; conditions: rat, oral administration of tartrate salts 25 mg/kg
Experimental: In-Vivo Assessment of Pharmacokinetics Following Oral Dose Administration in Male Sprague-Dawley Rats
Blood samples were collected from all animals in Groups 1-3 at 0.25, 0.5, 1, 2, 4, 6, 8, 12, and 24 hours post-dose, with each animal, bled at all time points. […] The slopes of the elimination phase of the concentrations vs. time curve used to calculate the T1/2 were determined by log-linear regression.
PK analyses were performed and validated using Phoenix® WinNonlin® version 8.0.

human M4 mAChR = molecular target: T5, human M4 mAChR (Homo sapiens, UniProt P08173); assay: Whole-cell functional agonist activity, phospho-ERK (pERK), CHOK1-based human M4 mAChR stable cell line; conditions: top of curve, % of min (DMSO) and max (10 mM Acetylcholine) responses
T5 construct: expressed in transfected cells
T5 sequence (P08173 1-479): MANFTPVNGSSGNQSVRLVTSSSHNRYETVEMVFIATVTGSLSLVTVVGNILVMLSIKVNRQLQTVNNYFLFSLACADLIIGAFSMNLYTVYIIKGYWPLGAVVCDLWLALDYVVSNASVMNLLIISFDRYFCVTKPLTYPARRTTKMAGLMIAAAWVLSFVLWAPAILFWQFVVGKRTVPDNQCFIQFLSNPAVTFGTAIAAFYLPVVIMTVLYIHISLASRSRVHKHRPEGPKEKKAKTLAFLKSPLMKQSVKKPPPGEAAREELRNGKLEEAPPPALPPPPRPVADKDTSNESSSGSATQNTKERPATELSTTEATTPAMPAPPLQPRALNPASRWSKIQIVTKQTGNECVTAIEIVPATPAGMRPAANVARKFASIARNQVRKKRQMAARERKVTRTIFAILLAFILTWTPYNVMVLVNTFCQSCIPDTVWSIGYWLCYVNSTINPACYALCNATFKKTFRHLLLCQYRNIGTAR
Experimental: as §1, §2, §3, §5

[4] = tested on: muscarinic acetylcholine receptor (mAChRs) human M1-M5 (hM1-hM5); conditions: pERK, CHO cells
Text: In-Vitro Radioligand Binding Assays
The Flp-In™ cell lines are designed to generate stable cell lines that express a protein of interest from an Flp-In™ expression vector.
An extracellular signal-related kinase (ERK1/2 or p42/44) is a kinase in the mitogen-activated protein kinase (MAPK) family. Phosphorylation of ERK (pERK) can be used as a common endpoint measurement for the activation of many classes of G protein-coupled receptors (GPCR) and beta-arrestin linked signaling.
For the pERK assay, cells were serum-starved for 5 to 6 hours. Curves were normalized to the maximum response from the fetal bovine serum (FBS) medium corresponding to a 5-minute stimulation. A 5-minute incubation with the agonists was selected for the dose-response pERK assays (n=2).
Nonlinear regression curves were calculated per the three parameters method with no constraints.

T1 sequence (P20309 whole entry): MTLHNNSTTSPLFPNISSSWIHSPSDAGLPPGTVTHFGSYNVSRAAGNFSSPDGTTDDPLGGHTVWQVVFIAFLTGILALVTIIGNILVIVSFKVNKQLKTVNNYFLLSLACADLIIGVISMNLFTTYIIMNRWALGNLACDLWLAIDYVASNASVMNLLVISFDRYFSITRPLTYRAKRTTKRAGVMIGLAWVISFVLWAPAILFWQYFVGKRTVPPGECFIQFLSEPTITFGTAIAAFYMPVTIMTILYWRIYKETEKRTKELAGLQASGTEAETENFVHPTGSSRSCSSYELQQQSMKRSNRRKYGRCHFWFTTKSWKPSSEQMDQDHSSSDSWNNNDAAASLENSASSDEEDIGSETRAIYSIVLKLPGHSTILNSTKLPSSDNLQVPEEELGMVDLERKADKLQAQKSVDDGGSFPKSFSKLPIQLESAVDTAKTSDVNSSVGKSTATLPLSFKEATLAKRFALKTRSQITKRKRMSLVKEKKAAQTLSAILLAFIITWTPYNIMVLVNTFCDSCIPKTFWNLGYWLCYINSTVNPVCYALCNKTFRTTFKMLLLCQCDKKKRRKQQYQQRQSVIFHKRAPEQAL

FC(F)(F)CCCCCOc1nsnc1C1=CCCN(C(F)(F)F)C1 [Example 2, 3-((6,6,6-Trifluorohexyl)oxy)-4-(1-(trifluoromethyl)-1,2,5,6-tetrahydropyridin-3-yl)-1,2,5-thiadiazole]
storage stability of tartrate salt ([1]; six months of storage at 0° C., LC-MS, 1H NMR, 19F NMR): none of the title compound remained in the sample

CCCCCCOc1nsnc1C1=CCCN(C(F)(F)F)C1 [Example 3, 3-(Hexyloxy)-4-(1-(trifluoromethyl)-1,2,5,6-tetrahydropyridin-3-yl)-1,2,5-thiadiazole]
stability of tartrate salt preparation by LCMS ([1]; after 2 days): turned messy

CCCC(F)(F)CCOc1nsnc1C1=CCCN(C)C1 [Example 10, 3-((3,3-Difluorohexyl)oxy)-4-(1-methyl-1,2,5,6-tetrahydropyridin-3-yl)-1,2,5-thiadiazole]
EC50 (human M3 mAChR): > 10 µM | Emax (human M3 mAChR): 9% | EC50 (human M5 mAChR; agonist, FLIPR Ca2+ release, CHOK1 human M5 cells): 0.0265 µM | Emax (human M5 mAChR): 87% | microsomal CLint at 100 nM ([2]; apparent intrinsic clearance, no unit in table (μL/min/pmol, μL/min/mg or μL/min/Mcell)): 701 µL/min/mg | Parent at 60 min (%) ([2]; 100 nM, 37° C., tartrate salt): 1% | half-life at 100 nM ([2]; 100 nM, 37° C., tartrate salt): 10 min | EC50 (human M1 mAChR; agonist, FLIPR Ca2+ release, U2OS human M1 cells): 0.0042 µM | Emax (human M1 mAChR; top of curve, % activity vs MAX control ligand, FLIPR Ca2+): 90%

CCCCCCOc1nsnc1C1=CCCN(C)C1 [Xanomeline, 3-(hexyloxy)-4-(1-methyl-1,2,5,6-tetrahydropyridin-3-yl)-1,2,5-thiadiazole, reference compound]
EC50 (human M3 mAChR): > 10 µM | Emax (human M3 mAChR): 17% | Emax (human M5 mAChR): 92% | M2 Top (%) (human M2 mAChR): 1% | plasma levels compared between treatments [3]: about mid-way between the levels of xanomeline-d16 and xanomeline-d13 | M4 Top (%) (human M4 mAChR): 100%

[2H]C([2H])([2H])C([2H])([2H])C([2H])([2H])C([2H])([2H])C([2H])([2H])C([2H])([2H])Oc1nsnc1C1=CCCN(C)C1 [Xanomeline-d13, 3-((Hexyl-1,1,2,2,3,3,4,4,5,5,6,6,6-d13)oxy)-4-(1-methyl-1,2,5,6-tetrahydropyridin-3-yl)-1,2,5-thiadiazole]
agonist profile at hM3, hM5, hM2 [4]: modestly potent partial agonists at mAChRs hM3>hM5>hM2 | agonist profile at hM4, hM1 [4]: efficacious partial agonist at hM4>hM1

[2H]C([2H])([2H])N1CCC=C(c2nsnc2OC([2H])([2H])C([2H])([2H])C([2H])([2H])C([2H])([2H])C([2H])([2H])C([2H])([2H])[2H])C1 [Xanomeline-d16, 3-((hexyl-1,1,2,2,3,3,4,4,5,5,6,6,6-d13)oxy)-4-(1-(methyl-d3)-1,2,5,6-tetrahydropyridin-3-yl)-1,2,5-thiadiazole]
agonist profile at hM3, hM5, hM2 [4]: modestly potent partial agonists at mAChRs hM3>hM5>hM2 | agonist profile at hM4, hM1 [4]: efficacious partial agonist at hM4>hM1
